Assay: ICH stability study of psilocybin batches (appearance, water content, purity, assay)
Conditions: for Chemical Purity By HPLC / Total Impurities / Water content by loss on drying: listed as GM764B

CN(C)CCc1c[nH]c2cccc(OP(=O)(O)O)c12 [Batch GM764B]
Appearance (T = 0): An off white solid.
Assay by 1H-NMR (T = 0): 97% ^w/w % w/w
Impurities by HPLC: RRT 0.86 (T = 0): 0.05%
Impurities by HPLC: RRT 1.46 (T = 0): 0.05%
Impurities by HPLC: RRT 1.59 (Psilocin) (T = 0): 0.37%
Chemical Purity By HPLC (T = 0): 99.24%
Total Impurities (T = 0): 0.76%
Water content by loss on drying (T = 0): 0.86% ^w/w % w/w
Appearance (T = 1 month, 2-8° C.): An off white solid.
Assay by 1H-NMR (T = 1 month, 2-8° C.): 99% ^w/w % w/w
Impurities by HPLC: RRT 0.86 (T = 1 month, 2-8° C.): 0.05%
Impurities by HPLC: RRT 1.46 (T = 1 month, 2-8° C.): 0.09%
Impurities by HPLC: RRT 1.59 (Psilocin) (T = 1 month, 2-8° C.): 0.35%
Chemical Purity By HPLC (T = 1 month, 2-8° C.): 99.24%
Total Impurities (T = 1 month, 2-8° C.): 0.76%
Water content by loss on drying (T = 1 month, 2-8° C.): 0.35% ^w/w % w/w
Appearance (T = 1 month, 25° C./60% RH): An off white solid.
Assay by 1H-NMR (T = 1 month, 25° C./60% RH): 98% ^w/w % w/w
Impurities by HPLC: RRT 0.86 (T = 1 month, 25° C./60% RH): 0.05%
Impurities by HPLC: RRT 1.46 (T = 1 month, 25° C./60% RH): 0.10%
Impurities by HPLC: RRT 1.59 (Psilocin) (T = 1 month, 25° C./60% RH): 0.34%
Chemical Purity By HPLC (T = 1 month, 25° C./60% RH): 99.22%
Total Impurities (T = 1 month, 25° C./60% RH): 0.78%
Water content by loss on drying (T = 1 month, 25° C./60% RH): 0.20% ^w/w % w/w
Appearance (T = 1 month, 40° C./75% RH): An off white solid.
Assay by 1H-NMR (T = 1 month, 40° C./75% RH): 96% ^w/w % w/w
Impurities by HPLC: RRT 0.86 (T = 1 month, 40° C./75% RH): 0.05%
Impurities by HPLC: RRT 1.46 (T = 1 month, 40° C./75% RH): 0.10%
Impurities by HPLC: RRT 1.59 (Psilocin) (T = 1 month, 40° C./75% RH): 0.34%
Chemical Purity By HPLC (T = 1 month, 40° C./75% RH): 99.23%
Total Impurities (T = 1 month, 40° C./75% RH): 0.77%
Water content by loss on drying (T = 1 month, 40° C./75% RH): 0.14% ^w/w % w/w
Appearance (T = 3 months, 2-8° C.): An off white solid.
Assay by 1H-NMR (T = 3 months, 2-8° C.): 97% ^w/w % w/w
Impurities by HPLC: RRT 0.86 (T = 3 months, 2-8° C.): < 0.05%
Impurities by HPLC: RRT 1.46 (T = 3 months, 2-8° C.): 0.10%
Impurities by HPLC: RRT 1.59 (Psilocin) (T = 3 months, 2-8° C.): 0.37%
Chemical Purity By HPLC (T = 3 months, 2-8° C.): 99.31%
Total Impurities (T = 3 months, 2-8° C.): 0.69%
Water content by loss on drying (T = 3 months, 2-8° C.): 0.26% ^w/w % w/w
Appearance (T = 3 months, 25° C./60% RH): An off white solid.
Assay by 1H-NMR (T = 3 months, 25° C./60% RH): 99% ^w/w % w/w
Impurities by HPLC: RRT 0.86 (T = 3 months, 25° C./60% RH): < 0.05%
Impurities by HPLC: RRT 1.46 (T = 3 months, 25° C./60% RH): 0.09%
Impurities by HPLC: RRT 1.59 (Psilocin) (T = 3 months, 25° C./60% RH): 0.36%
Chemical Purity By HPLC (T = 3 months, 25° C./60% RH): 99.27%
Total Impurities (T = 3 months, 25° C./60% RH): 0.73%
Water content by loss on drying (T = 3 months, 25° C./60% RH): 0.08% ^w/w % w/w
Appearance (T = 3 months, 40° C./75% RH): An off white solid.
Assay by 1H-NMR (T = 3 months, 40° C./75% RH): 97% ^w/w % w/w
Impurities by HPLC: RRT 0.86 (T = 3 months, 40° C./75% RH): < 0.05%
Impurities by HPLC: RRT 1.46 (T = 3 months, 40° C./75% RH): 0.10%
Impurities by HPLC: RRT 1.59 (Psilocin) (T = 3 months, 40° C./75% RH): 0.37%
Chemical Purity By HPLC (T = 3 months, 40° C./75% RH): 99.26%
Total Impurities (T = 3 months, 40° C./75% RH): 0.74%
Water content by loss on drying (T = 3 months, 40° C./75% RH): 0.14% ^w/w % w/w

Source: patent US12662498B2 (priority 2017, dated 2026)
